Measurements from publication PMC2722590, “Production of N-acetyl-D-neuraminic acid using two sequential enzymes overexpressed as double-tagged fusion proteins” (BMC Biotechnology, 2009).

Biological target: T1, GST-GlcNAc 2-epimerase-5D (Synechocystis sp. PCC 6803, UniProt P74124)
T1 construct: gene slr1975; 1209 bp PCR fragment
T1 sequence (P74124 1-391): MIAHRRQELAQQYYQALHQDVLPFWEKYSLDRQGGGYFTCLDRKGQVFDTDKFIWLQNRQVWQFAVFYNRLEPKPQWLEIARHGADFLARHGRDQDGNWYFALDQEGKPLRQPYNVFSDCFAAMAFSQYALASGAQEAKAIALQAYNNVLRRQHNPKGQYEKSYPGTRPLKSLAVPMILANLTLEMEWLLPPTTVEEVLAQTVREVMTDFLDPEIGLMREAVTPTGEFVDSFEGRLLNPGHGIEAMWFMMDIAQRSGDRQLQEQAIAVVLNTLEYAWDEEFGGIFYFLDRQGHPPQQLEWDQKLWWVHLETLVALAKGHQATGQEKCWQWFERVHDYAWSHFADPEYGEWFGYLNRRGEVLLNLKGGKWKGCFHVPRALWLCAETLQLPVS
Assay: enzyme inhibition kinetics
Format: biochemical
Conditions: read-out: inhibition constant

Ki: 31 mM
Structure (SMILES): CC(=O)C(=O)O [pyruvate]
